Experimental data from patent US20180273538A1, “PYRROLO[2,3-d]PYRIMIDINE DERIVATIVES, A PROCESS FOR THEIR PREPARATION AND PHARMACEUTICAL COMPOSITIONS CONTAINING THEM” (LES LABORATOIRES SERVIER, priority 2015, published 2018).

How the values were obtained:
DYRK1A = target: T1, DYRK1A (Homo sapiens, UniProt Q13627); experiment: Kinase TR-FRET assay, DYRK1A; assay type: biochemical
T1 construct: full-length human kinases from Carna Biosciences; purchased Carna Biosciences 04-130

[1] = target: T2, His-TEV-DYRK1A Kinase domain (aa127-485) (Homo sapiens, UniProt Q13627); experiment: Kinase ADP assay (ADP Hunter Plus); assay type: biochemical
T2 construct: His-TEV-DYRK1A Kinase domain (aa127-485); His (N); TEV cleavage site (N)

phospho-Ser520-DYRK1A = target: T3, phospho-Ser520-DYRK1A (Homo sapiens, UniProt Q13627); experiment: Cellular DYRK1A autophosphorylation assay in U2-OS cells; assay type: cell-based; conditions: 5 hours exposure, read-out: IC50 (μM) P-Ser520-Dyrk1A-Cell assay
T3 construct: full-length, wild-type human DYRK1A (NM_001396) with an HA tag; expressed in transfected cells; host or cells: human U2-OS osteosarcoma cells, pcDNA3.1 plasmid

| SMILES | IC50 (DYRK1A) | IC50 [1] | IC50 (phospho-Ser520-DYRK1A) |
| --- | --- | --- | --- |
| Cc1nc(OC(C)c2ccccc2)c2c(-c3ccnc(N)c3)c[nH]c2n1 (stereo not drawn) [Example 20, 4-[2-methyl-4-(1-phenylethoxy)-7H-pyrrolo[2,3-d]pyrimidin-5-yl]pyridin-2-amine] | 0.0197 µM | 0.013 µM |  |
| Cc1nc(NC(C)c2ccccn2)c2c(-c3ccnc(N)c3)c[nH]c2n1 (stereo not drawn) [Example 66, 5-(2-aminopyridin-4-yl)-2-methyl-N-[1-(pyridin-2-yl)ethyl]-7H-pyrrolo[2,3-d]pyrimidin-4-amine] | 0.0107 µM | 0.045 µM |  |
| Cc1nc(NCc2ccc3cc[nH]c3c2)c2c(-c3ccnc(N)c3)c[nH]c2n1 [Example 72, 5-(2-aminopyridin-4-yl)-N-(1H-indol-6-ylmethyl)-2-methyl-7H-pyrrolo[2,3-d]pyrimidin-4-amine] | 0.021 µM | 0.013 µM |  |
| Cc1nc(NCc2cc(F)cc(F)c2F)c2c(-c3ccnc(N)c3)c[nH]c2n1 [Example 73, 5-(2-aminopyridin-4-yl)-2-methyl-N-(2,3,5-trifluorobenzyl)-7H-pyrrolo[2,3-d]pyrimidin-4-amine] | 0.0059 µM | 0.038 µM |  |
| Cc1nc(NCc2ccc(F)cc2C(F)(F)F)c2c(-c3ccnc(N)c3)c[nH]c2n1 [Example 75, 5-(2-ammopyridin-4-yl)-N-[4-fluoro-2-(trifluoromethyl)benzyl]-2-methyl-7H-pyrrolo[2,3-d]pyrimidin-4-amine] | 0.0143 µM | 0.037 µM |  |
| Cc1nc(NCc2ccccc2OC(F)(F)F)c2c(-c3ccnc(N)c3)c[nH]c2n1 [Example 89, 5-(2-aminopyridin-4-yl)-2-methyl-N-[2-(trifluoromethoxy)benzyl]-7H-pyrrolo[2,3-d]pyrimidin-4-amine] | 0.0492 µM | 0.077 µM |  |
| Cc1nc(Nc2ccc3c(c2)OCO3)c2c(-c3ccnc(N)c3)c[nH]c2n1 [Example 132, 5-(2-aminopyridin-4-yl)-N-(1,3-benzodioxol-5-yl)-2-methyl-7H-pyrrolo[2,3-d]pyrimidin-4-amine] | 0.0338 µM | 0.122 µM |  |
| Nc1cc(-c2c[nH]c3nc(C#CC4CC4)nc(-c4ccc5c(c4)OCO5)c23)cc(N)n1 [Example 154, 4-[4-(1,3-benzodioxol-5-yl)-2-(cyclopropylethynyl)-7H-pyrrolo[2,3-d]pyrimidin-5-yl]pyridine-2,6-diamine] |  | 0.013 µM | 0.053 µM |
| N#Cc1nc(-c2ccc3c(c2)OCO3)c2c(-c3cc(N)nc(N)c3)c[nH]c2n1 [Example 158, 4-(1,3-benzodioxol-5-yl)-5-(2,6-diaminopyridin-4-yl)-7H-pyrrolo[2,3-d]pyrimidine-2-carbonitrile] | 0.0655 µM | 0.15 µM |  |
| Cc1nc(/C=C/c2ccccc2)c2c(-c3ccnc(N)c3)c[nH]c2n1 [Example 159] |  | 0.012 µM | 0.0187 µM |
| Cc1nc(-c2ccc3c(c2)OC(F)(F)O3)c2c(-c3ccnc(N)c3)c[nH]c2n1 [Example 164, 4-[4-(2,2-difluoro-1,3-benzodioxol-5-yl)-2-methyl-7H-pyrrolo[2,3-d]pyrimidin-5-yl]pyridin-2-amine] |  | 0.015 µM | 0.0883 µM |
| Cc1nc(-c2cccc(OC(F)(F)F)c2)c2c(-c3ccnc(N)c3)c[nH]c2n1 [Example 181] |  | 0.019 µM | 0.15 µM |
| Cc1nc(-c2cc3ccccc3s2)c2c(-c3ccnc(N)c3)c[nH]c2n1 [Example 182] |  | 0.013 µM | 0.0142 µM |
| Cc1nc(-c2cc3ccccc3o2)c2c(-c3ccnc(N)c3)c[nH]c2n1 [Example 183] |  | 0.006 µM | 0.029 µM |
| Cc1ccc2sc(-c3nc(C)nc4[nH]cc(-c5ccnc(N)c5)c34)cc2c1 [Example 184] |  | 0.012 µM | 0.0319 µM |
| Cc1nc(-c2cc(F)c3c(c2)OCO3)c2c(-c3ccnc(N)c3)c[nH]c2n1 [Example 191] |  | 0.006 µM | 0.0443 µM |
| Cc1nc(-c2ccc3c(c2)OCO3)c2c(-c3cc(N)nc(N)c3)c[nH]c2n1 [Example 192] |  | 0.008 µM | 0.048 µM |
| Cc1nc(C#Cc2ccccc2F)c2c(-c3ccnc(N)c3)c[nH]c2n1 [Example 194] |  | 0.007 µM | 0.017 µM |
| Cc1nc(-c2ccc3c(c2)CCCC3)c2c(-c3ccnc(N)c3)c[nH]c2n1 [Example 195] |  | 0.008 µM | 0.0071 µM |
| Cc1nc(C#CC2CC2)c2c(-c3cc(N)nc(N)c3)c[nH]c2n1 [Example 196] |  | 0.023 µM | 0.172 µM |
| Cc1nc(C#CC2CC2)c2c(-c3ccnc(N)c3)c[nH]c2n1 [Example 198, 4-[4-(cyclopropylethynyl)-2-methyl-7H-pyrrolo[2,3-d]pyrimidin-5-yl]pyridin-2-amine] |  | 0.017 µM | 0.119 µM |
| Cc1nc(NCc2cccc3c2OCO3)c2c(-c3ccnc(N)n3)c[nH]c2n1 [Example 208, 5-(2-aminopyrimidin-4-yl)-N-(1,3-benzodioxol-4-ylmethyl)-2-methyl-7H-pyrrolo[2,3-d]pyrimidin-4-amine] |  | 0.01 µM | 0.0041 µM |
| Cc1nc(-c2ccc3c(c2)OCO3)c2c(-c3ccnc(N)n3)c[nH]c2n1 [Example 209, 4-[4-(1,3-benzodioxol-5-yl)-2-methyl-7H-pyrrolo[2,3-d]pyrimidin-5-yl]pyrimidin-2-amine] |  | 0.032 µM | 0.157 µM |
| Nc1cc(-c2c[nH]c3nc(C#CC4CC4)cc(-c4ccc5c(c4)OCCO5)c23)ccn1 [Example 215, 4-[6-(cyclopropylethynyl)-4-(2,3-dihydro-1,4-benzodioxin-6-yl)-1H-pyrrolo[2,3-b]pyridin-3-yl]pyridin-2-amine] |  | 0.019 µM | 0.103 µM |
| Nc1cc(-c2c[nH]c3nc(C#CC4CC4)cc(-c4ccc5c(c4)OCO5)c23)cc(N)n1 [Example 218, 4-[4-(1,3-benzodioxol-5-yl)-6-(cyclopropylethynyl)-1H-pyrrolo[2,3-b]pyridin-3-yl]pyridine-2,6-diamine] |  | 0.015 µM | 0.0289 µM |
| Nc1cc(-c2c[nH]c3nc(C#CC4CC4)cc(-c4ccc5c(c4)OCO5)c23)ccn1 [Example 219, 4-[4-(1,3-benzodioxol-5-yl)-6-(cyclopropylethynyl)-1H-pyrrolo[2,3-b]pyridin-3-yl]pyridin-2-amine] |  | 0.019 µM | 0.0325 µM |
| C#Cc1cc(-c2ccc3c(c2)OCO3)c2c(-c3ccnc(N)c3)c[nH]c2n1 [Example 220, 4-[4-(1,3-benzodioxol-5-yl)-6-ethynyl-1H-pyrrolo[2,3-b]pyridin-3-yl]pyridin-2-amine] |  | 0.034 µM | 0.193 µM |
| C#Cc1cc(-c2ccc3c(c2)OCO3)c2c(-c3cc(N)nc(N)c3)c[nH]c2n1 [Example 221, 4-[4-(1,3-benzodioxol-5-yl)-6-ethynyl-1H-pyrrolo[2,3-b]pyridin-3-yl]pyridine-2,6-diamine] |  | 0.016 µM | 0.132 µM |
| Cc1cc(-c2ccc3c(c2)OCO3)c2c(-c3ccnc(N)c3)c[nH]c2n1 [Example 222, 4-[4-(1,3-benzodioxol-5-yl)-6-methyl-1H-pyrrolo[2,3-b]pyridin-3-yl]pyridin-2-amine] |  | 0.008 µM | 0.0442 µM |
| N#Cc1cc(-c2ccc3c(c2)OCO3)c2c(-c3cc(N)nc(N)c3)c[nH]c2n1 [Example 224, 4-(1,3-benzodioxol-5-yl)-3-(2,6-diaminopyridin-4-yl)-1H-pyrrolo[2,3-b]pyridine-6-carbonitrile] |  | 0.03 µM | 0.225 µM |
